From patent US5783568A, “Methods for treating cancer and other cell proliferative diseases” (Sugen, Inc., priority 1994, dated 1998)
“Also recorded” adds a separate entry of the source. Read-outs that look alike come from different tables or passages of the source.

Experiments:
tumor cells = settings: Wellstein et al, 1991; cited from earlier work
K-FGF = settings: cited from earlier work
aFGF = target: T1, aFGF (Homo sapiens, UniProt P05230); assay: Isothermal titration calorimetry, binding to aFGF; settings: ITC
T1 construct: made in house; host or cells: E. coli

FGFR2 (bek) [1] = assay: Tyrosine phosphorylation of FGFR2 in wild-type CHO-K1 cells; assay type: cell-based, human; settings: excess of sucrose octasulfate (0.5, 50 or 500 μM) with aFGF and heparin
Experimental: (§1) Cells were lysed and the receptor was immunoprecipitated with anti-FGFR2 antibodies. Samples were then analyzed by SDS-PAGE, transferred to nitrocellulose membranes, and tyrosine-phosphorylated proteins were detected by immunoblotting with anti-phosphotyrosine antibodies.
(§2) Wild-type CHO cells (CHO-K1), as well as heparin sulfate-deficient mutant cells (CHO-pgsD-677) which were kindly provided by Prof. J. Esko (Esko, 1991), were cultured in F-12 medium containing 7.5% FBS, 1% Ampicillin/Streptomycin and 1% glutamine. Both CHO cell lines were co-transfected with the wild-type human FGFR2 (bek) DNA in the expression vector pMJ30 (Dionne et al., 1990) (40 μg/10 cm dish) and the pSVneo resistant gene (0.5 mg/10 cm dish), using the calcium phosphate method (Chen and Okayama, 1987). Geneticin (1 mg/ml) resistant clones were screened for expression of the receptor by immunoprecipitation and immunoblotting analysis using anti-FGFR2 antibodies.
(§3) Wild-type and mutant CHO cells were starved overnight in F-12 medium containing 0.5% FBS, and stimulated with either 0.1 nM aFGF, 50 nM heparin, or both, for 5 min at 37° C. Cells were lysed, immunoprecipitated with anti-FGFR2 antibodies and analyzed by immunoblotting with anti-phosphotyrosine (anti-PTyr) antibodies.

FGFR2 (bek) [2] = assay: Tyrosine phosphorylation of FGFR2 in mutant (HSPG-deficient) CHO-pgsD-677 cells; assay type: cell-based, human
Experimental: as §1, §2, §3

bFGF = settings: cited from earlier work
heparin binding proteins = settings: cited from earlier work
gastric mucosa = settings: cited from earlier work
EGF = settings: cited from earlier work
VEGF = settings: cell culture; Kendall & Thomas, 1993; cited from earlier work

T1 sequence (P05230 whole entry): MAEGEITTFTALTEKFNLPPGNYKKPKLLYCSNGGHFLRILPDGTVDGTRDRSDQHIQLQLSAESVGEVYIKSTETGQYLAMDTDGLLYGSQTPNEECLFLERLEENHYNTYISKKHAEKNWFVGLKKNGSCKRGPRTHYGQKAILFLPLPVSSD

For Pentosan polysulfate, the “growth of tumor cells in vitro” value (tumor cells) is listed as “selective inhibition of growth of tumor cells in vitro”, the K-FGF-induced growth (K-FGF; Wellstein et al., 1991) is listed as “inhibited the K-FGF- induced growth” and the “FGF-induced angiogenesis and tumor growth” value (K-FGF) is listed as “inhibited the FGF-induced angiogenesis and tumor growth”.

For `O=S(=O)(O)OC[C@H]1O[C@@](COS(=O)(=O)O)(O[C@H]2O[C@H](COS(=O)(=O)O)[C@@H](OS(=O)(=O)O)[C@H](OS(=O)(=O)O)[C@H]2OS(=O)(=O)O)[C@@H](OS(=O)(=O)O)[C@@H]1OS(=O)(=O)O` [sucrose octasulfate], the “AH of aFGF binding to heparin / heparin analog” value (aFGF; heparins: means ± SD of two experiments) was -5.8 ± 1.2 kcal mol^-1, the Kd (aFGF; single class of binding sites, heparins: means ± SD of two experiments, read-out: KD of aFGF binding to heparin / heparin analog) was 3.4 ± 1.34 µM and the Kd (aFGF; KD of aFGF binding to sucrose octasulfate) was 3.4 µM. The “effect on aFGF/heparin-induced receptor activation, CHO cells that express HSPG” value (FGFR2 (bek) [1]) was “inhibitory”, the “effect on aFGF/heparin-induced receptor activation, mutant CHO cells” value (FGFR2 (bek) [2]; excess of sucrose octasulfate (0.5, 50 or 500 μM) with 0.1 nM aFGF and 50 nM heparin) was “inhibitory; also recorded: can be inhibited” and the “aFGF/heparin-induced dimerization and activation of FGFR” value (FGFR2 (bek) [2]; statement of Section 5.1 referring to Section 7.2.8) was “effectively inhibits aFGF/heparin-induced dimerization and activation of FGFR”. For the same molecule, the “activation of FGFR by aFGF with sucrose octasulfate in place of heparin, mutant CHO cells” value (FGFR2 (bek) [2]; sucrose octasulfate plus aFGF, no heparin) was “does not enable aFGF to activate FGFR in the mutant (HSPG-deficient) CHO cells” and the “protection of bFGF from acid degradation” value (bFGF) was “protect the biologic activity of bFGF against acid degradation”.

For `Cc1ccc(C(=O)Nc2ccc(S(=O)(=O)O)c3cc(S(=O)(=O)O)cc(S(=O)(=O)O)c23)cc1NC(=O)c1cccc(NC(=O)Nc2cccc(C(=O)Nc3cc(C(=O)Nc4ccc(S(=O)(=O)O)c5cc(S(=O)(=O)O)cc(S(=O)(=O)O)c45)ccc3C)c2)c1` [Suramin], the “effect on heparin binding proteins” value (heparin binding proteins) is listed as “inducing microagglutination of the growth factor; also recorded: inhibit a variety of heparin binding proteins”.

For “sucrose octakis (hydrogen sulfate) aluminum complex [sucralfate]”, the “ulcer healing / wound healing” value (gastric mucosa; in vivo) is given as “accelerates ulcer healing without reducing gastric acid; also recorded: elevates the level of available endogenous bFGF in the ulcer bed and stimulates angiogenesis and wound healing”, the epithelial proliferation (gastric mucosa; through stimulation of gastric mucosal EGF and PDGF receptors) is given as “enhances epithelial proliferation” and the “protection of bFGF from acid degradation” value (bFGF) is given as “protects bFGF from degradation by acid”. The “affinity to bFGF” value (bFGF; compared with heparin) was “higher affinity binding to bFGF than heparin” and the EGF binding (EGF) was “binds EGF in a pH-dependent manner”.

B1: soluble Flt-1: soluble Flt-1, one of the receptors for VEGF (protein, UniProt P17948 27-758, looked up)
extracellular domain: SKLKDPELSLKGTQHIMQAGQTLHLQCRGEAAHKWSLPEMVSKESERLSITKSACGRNGKQFCSTLTLNTAQANHTGFYSCKYLAVPTSKKKETESAIYIFISDTGRPFVEMYSEIPEIIHMTEGRELVIPCRVTSPNITVTLKKFPLDTLIPDGKRIIWDSRKGFIISNATYKEIGLLTCEATVNGHLYKTNYLTHRQTNTIIDVQISTPRPVKLLRGHTLVLNCTATTPLNTRVQMTWSYPDEKNKRASVRRRIDQSNSHANIFYSVLTIDKMQNKDKGLYTCRVRSGPSFKSVNTSVHIYDKAFITVKHRKQQVLETVAGKRSYRLSMKVKAFPSPEVVWLKDGLPATEKSARYLTRGYSLIIKDVTEEDAGNYTILLSIKQSNVFKNLTATLIVNVKPQIYEKAVSSFPDPALYPLGSRQILTCTAYGIPQPTIKWFWHPCNHNHSEARCDFCSNNEESFILDADSNMGNRIESITQRMAIIEGKNKMASTLVVADSRISGIYICIASNKVGTVGRNISFYITDVPNGFHVNLEKMPTEGEDLKLSCTVNKFLYRDVTWILLRTVNNRTMHYSISKQKMAITKEHSITLNLTIMNVSLQDSGTYACRARNVYTGEEILQKKEITIRDQEAPYLLRNLSDHTVAISSSTTLDCHANGVPEPQITWFKNNHKIQQEPGIILGPGSSTLFIERVTEEDEGVYHCKATNQKGSVESSAYLTVQGTSDKSNLE
modifications: extracellular domain
notes: soluble Flt-1, one of the receptors for VEGF
For B1, the VEGF activity (VEGF) is given as “can bind and inhibit the activity of VEGF in cell culture”.
